Laboratory results published in patent US20080319000A1, “Use of 3,1IB-Cis-Dihydrotetrabenazine for the Treatment of Symptoms of Huntingtons Disease” (CAMBRIDGE LABORATORIES (IRELAND) LIMITED, priority 2005, published 2008).

Experiments:
Male Sprague-Dawley rats = test: Spontaneous locomotor activity in rats (sedative properties); type: in vivo; conditions: for Inactivity Duration / Large movements Duration / Large movements Occurrence: 20 min period, mean ± SEM n=12
Protocol: A study was carried out in rats to determine whether the dihydrotetrabenazine isomers of the invention have sedative properties. […] Male Sprague-Dawley rats, (Charles River Laboratories, Saint-Germain/L'Arbresle, France), weighing 200-250 g at the beginning of the study, were used for the studies. […] The rats were allowed to acclimatize to their conditions for at least five days before commencement of the study. The rats received food ([…], France, ref. 811002) and water (tap water in water bottle) ad libitum. Solutions of each test compound in corn oil were freshly prepared on the day of the experiment. Haloperidol was prepared in hydroxyethylcellulose, 0.5% in deionized water. Either the vehicle or the test compounds were administered as a single dose (0.3, 1, 3 and 10 mg/kg, 2 mL/kg i.p.). The reference compound haloperidol (1 mg/kg) was administered i.p. […] The animals were placed in plexiglass cages under a video camera in a room with low light intensity (maximum 50 lux). At forty five minutes and 3 hours after administration, locomotor activity was determined during 20 minute periods using a video image analyzer (Videotrack, View Point, France). […] The number and duration of ambulatory movements and duration of inactivity was measured. At the end of the locomotor activity measurement (45 minutes and 3 hours), palpebral closure and arousal were be scored as follows in the plexiglass cage: […] Image tracking was performed using a video camera placed above the plexiglass cage, recording overall locomotor activity. […] The results were expressed as the means ±SEMs of the 12 individual values. Statistical analyses were carried out using ANOVA (one way) and Dunnett's t-test and with the non parametric test of Kruskal-Wallis followed by a Mann & Whitney U-test for the sedation cotation. A p value of p<0.05 was taken as indicating significance. Group size n=12 Group 1: Reference, haloperidol (1 mg/kg i.p.) Group 2: Vehicle control group (2 ml/kg i.p.) Group 3: tetrabenazine (0.3 mg/kg i.p) Group 4: tetrabenazine (1 mg/kg i.p) Group 5: tetrabenazine (3 mg/kg i.p) Group 6: tetrabenazine (10 mg/kg i.p) Group 7: […]

VMAT1 = target: T1, VMAT1 (Homo sapiens, UniProt P54219); test: VMAT1 affinity; type: binding
T1 sequence (P54219 1-525): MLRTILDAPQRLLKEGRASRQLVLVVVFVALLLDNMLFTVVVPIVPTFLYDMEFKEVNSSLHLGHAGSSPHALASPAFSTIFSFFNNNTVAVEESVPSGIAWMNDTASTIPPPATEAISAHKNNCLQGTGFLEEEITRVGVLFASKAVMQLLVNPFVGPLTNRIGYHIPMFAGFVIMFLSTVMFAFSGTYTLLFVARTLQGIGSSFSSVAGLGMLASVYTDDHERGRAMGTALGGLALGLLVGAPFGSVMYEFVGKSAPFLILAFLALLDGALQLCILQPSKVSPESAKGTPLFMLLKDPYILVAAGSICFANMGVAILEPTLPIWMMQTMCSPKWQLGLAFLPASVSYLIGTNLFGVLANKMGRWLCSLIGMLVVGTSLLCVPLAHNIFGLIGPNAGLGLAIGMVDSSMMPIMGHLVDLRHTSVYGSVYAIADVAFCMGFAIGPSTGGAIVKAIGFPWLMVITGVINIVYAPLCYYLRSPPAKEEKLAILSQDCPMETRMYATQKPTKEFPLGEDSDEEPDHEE

[1] = target: T2, catechol O-methyl transferase (COMT) (Homo sapiens, UniProt P21964); test: COMT inhibition; type: biochemical
T2 sequence (P21964 1-271): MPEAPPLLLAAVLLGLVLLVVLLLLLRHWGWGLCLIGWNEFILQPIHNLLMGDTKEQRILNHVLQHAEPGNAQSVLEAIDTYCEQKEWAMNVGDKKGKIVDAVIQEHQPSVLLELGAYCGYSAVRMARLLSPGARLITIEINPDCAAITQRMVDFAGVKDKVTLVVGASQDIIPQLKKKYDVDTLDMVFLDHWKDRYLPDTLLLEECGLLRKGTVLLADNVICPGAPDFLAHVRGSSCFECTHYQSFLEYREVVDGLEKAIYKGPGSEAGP

[2] = target: 5-hydroxytryptamine isoform 1b (Homo sapiens, UniProt P28222); test: 5-hydroxytryptamine 1b inhibition; type: binding
Chain of 5-hydroxytryptamine isoform 1b (P28222 whole entry, canonical isoform): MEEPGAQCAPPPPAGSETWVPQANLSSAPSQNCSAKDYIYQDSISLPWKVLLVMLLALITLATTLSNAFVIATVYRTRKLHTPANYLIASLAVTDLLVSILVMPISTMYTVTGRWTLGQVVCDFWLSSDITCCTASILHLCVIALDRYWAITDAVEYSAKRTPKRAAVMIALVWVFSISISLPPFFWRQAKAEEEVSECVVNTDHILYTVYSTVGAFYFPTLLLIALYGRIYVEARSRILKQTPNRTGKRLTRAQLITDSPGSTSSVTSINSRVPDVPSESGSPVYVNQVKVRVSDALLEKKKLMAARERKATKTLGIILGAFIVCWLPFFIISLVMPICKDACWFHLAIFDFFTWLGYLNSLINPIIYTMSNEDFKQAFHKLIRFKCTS

[3] = target: serotonin transporter protein SERT (Homo sapiens, UniProt P31645); test: Serotonin transporter SERT inhibition; type: binding
Chain of serotonin transporter protein SERT (P31645 whole entry, canonical isoform): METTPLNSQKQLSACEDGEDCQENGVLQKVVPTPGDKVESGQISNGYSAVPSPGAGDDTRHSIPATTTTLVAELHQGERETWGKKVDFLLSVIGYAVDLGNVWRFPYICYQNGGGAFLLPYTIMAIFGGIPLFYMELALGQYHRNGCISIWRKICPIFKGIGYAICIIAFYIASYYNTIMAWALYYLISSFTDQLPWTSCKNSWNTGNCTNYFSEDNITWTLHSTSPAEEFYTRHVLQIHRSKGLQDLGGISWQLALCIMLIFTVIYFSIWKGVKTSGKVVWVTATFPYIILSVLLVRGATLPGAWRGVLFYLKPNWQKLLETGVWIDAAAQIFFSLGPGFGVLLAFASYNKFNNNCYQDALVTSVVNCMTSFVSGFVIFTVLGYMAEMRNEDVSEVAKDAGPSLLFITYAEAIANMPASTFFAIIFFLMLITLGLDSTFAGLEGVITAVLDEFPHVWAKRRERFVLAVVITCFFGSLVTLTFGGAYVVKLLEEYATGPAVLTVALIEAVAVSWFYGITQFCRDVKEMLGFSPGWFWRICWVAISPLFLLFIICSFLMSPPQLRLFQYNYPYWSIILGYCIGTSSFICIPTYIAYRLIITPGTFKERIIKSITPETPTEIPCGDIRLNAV

[4] = target: 5-hydroxytryptamine isoform 1d (Homo sapiens, UniProt P28221); test: 5-hydroxytryptamine 1d inhibition; type: binding
Chain of 5-hydroxytryptamine isoform 1d (P28221 whole entry, canonical isoform): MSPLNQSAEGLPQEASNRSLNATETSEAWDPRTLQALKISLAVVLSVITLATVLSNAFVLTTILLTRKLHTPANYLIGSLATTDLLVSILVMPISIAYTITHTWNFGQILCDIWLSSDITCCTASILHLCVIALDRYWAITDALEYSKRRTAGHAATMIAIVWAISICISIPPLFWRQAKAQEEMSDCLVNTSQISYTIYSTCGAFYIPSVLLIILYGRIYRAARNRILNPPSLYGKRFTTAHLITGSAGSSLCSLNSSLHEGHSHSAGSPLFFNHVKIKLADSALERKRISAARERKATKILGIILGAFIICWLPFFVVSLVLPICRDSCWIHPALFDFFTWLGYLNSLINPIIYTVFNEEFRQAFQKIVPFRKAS

adrenergic receptors = test: Adrenergic receptor inhibition; type: binding
[5] = target: Dopamine Transporter (DAT) (Homo sapiens, UniProt Q01959); test: Dopamine Transporter (DAT) binding
Chain of Dopamine Transporter (DAT) (Q01959 whole entry, species assumed, canonical isoform): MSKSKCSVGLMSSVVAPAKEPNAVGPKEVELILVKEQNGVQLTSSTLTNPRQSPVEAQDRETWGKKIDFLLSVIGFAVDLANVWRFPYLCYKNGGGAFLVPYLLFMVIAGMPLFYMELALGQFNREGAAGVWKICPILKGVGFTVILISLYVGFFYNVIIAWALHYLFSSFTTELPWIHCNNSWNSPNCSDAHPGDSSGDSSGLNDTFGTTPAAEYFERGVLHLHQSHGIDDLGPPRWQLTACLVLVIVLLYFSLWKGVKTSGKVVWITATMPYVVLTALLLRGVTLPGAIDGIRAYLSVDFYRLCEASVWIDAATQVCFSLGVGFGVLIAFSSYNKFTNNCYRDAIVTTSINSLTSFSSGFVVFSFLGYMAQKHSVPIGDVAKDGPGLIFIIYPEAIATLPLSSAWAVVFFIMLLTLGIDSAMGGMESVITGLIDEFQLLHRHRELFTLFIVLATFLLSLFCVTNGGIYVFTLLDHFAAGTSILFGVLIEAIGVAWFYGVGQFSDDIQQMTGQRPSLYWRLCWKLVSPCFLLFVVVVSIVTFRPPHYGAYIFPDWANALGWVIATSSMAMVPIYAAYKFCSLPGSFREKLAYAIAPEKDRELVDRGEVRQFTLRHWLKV

[6] = target: T3, monoamine oxidase isoform A (Homo sapiens, UniProt P21397); test: Monoamine oxidase A inhibition; type: biochemical
T3 sequence (P21397 1-527): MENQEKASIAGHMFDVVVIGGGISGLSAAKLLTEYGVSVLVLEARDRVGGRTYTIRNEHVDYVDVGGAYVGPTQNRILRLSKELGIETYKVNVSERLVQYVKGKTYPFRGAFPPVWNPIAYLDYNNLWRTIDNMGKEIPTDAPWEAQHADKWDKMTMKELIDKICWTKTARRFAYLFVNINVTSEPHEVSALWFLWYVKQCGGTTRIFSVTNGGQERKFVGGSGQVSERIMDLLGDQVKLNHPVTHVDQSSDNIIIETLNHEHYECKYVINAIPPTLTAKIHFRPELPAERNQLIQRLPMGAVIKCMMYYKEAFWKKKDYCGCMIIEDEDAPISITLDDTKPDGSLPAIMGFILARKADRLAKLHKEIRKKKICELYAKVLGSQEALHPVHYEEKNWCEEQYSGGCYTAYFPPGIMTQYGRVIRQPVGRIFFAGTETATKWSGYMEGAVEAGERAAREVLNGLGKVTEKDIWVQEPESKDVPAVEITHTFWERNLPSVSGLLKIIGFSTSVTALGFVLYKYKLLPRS

dopamine receptor = test: Dopamine receptor binding
[7] = target: T4, monoamine oxidase isoform B (Homo sapiens, UniProt P27338); test: Monoamine oxidase B inhibition; type: biochemical
T4 sequence (P27338 1-520): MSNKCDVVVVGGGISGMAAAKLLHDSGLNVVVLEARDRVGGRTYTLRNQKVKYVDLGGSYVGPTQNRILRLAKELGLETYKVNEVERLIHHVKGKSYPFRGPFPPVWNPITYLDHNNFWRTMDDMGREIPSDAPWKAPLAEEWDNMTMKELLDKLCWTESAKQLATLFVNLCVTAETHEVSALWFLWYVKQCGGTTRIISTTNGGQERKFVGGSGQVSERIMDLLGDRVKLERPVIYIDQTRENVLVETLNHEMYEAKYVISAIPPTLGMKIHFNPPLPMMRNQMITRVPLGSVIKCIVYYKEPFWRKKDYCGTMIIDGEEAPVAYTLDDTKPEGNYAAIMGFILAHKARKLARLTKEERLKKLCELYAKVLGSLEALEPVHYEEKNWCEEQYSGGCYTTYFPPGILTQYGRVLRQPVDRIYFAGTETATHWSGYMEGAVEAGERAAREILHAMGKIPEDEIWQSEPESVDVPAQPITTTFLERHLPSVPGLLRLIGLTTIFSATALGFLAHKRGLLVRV

[8] = locomotor studies carried out on rats
[9] = rats, 0.3 mg/kg i.p., 45 minutes after administration
[10] = rats, 0.3 mg/kg i.p., 3 hours after administration
[11] = rats, 1 mg/kg i.p., 45 minutes after administration
[12] = rats, 1 mg/kg i.p., 3 hours after administration
[13] = rats, 3 mg/kg i.p., 45 minutes after administration
[14] = rats, 3 mg/kg i.p., 3 hours after administration
[15] = rats, 10 mg/kg i.p., 45 minutes after administration
[16] = rats, 10 mg/kg i.p., 3 hours after administration
[17] = rats, 0.3, 1, 3 and 10 mg/kg i.p., 45 minutes and 3 hours after administration

SMILES	sedative effect (Male Sprague-Dawley rats; [8])	Inactivity Duration (Male Sprague-Dawley rats; [9]) [s]	Large movements Duration (Male Sprague-Dawley rats; [9]) [s]	Large movements Occurrence (Male Sprague-Dawley rats; [9])	Inactivity Duration (Male Sprague-Dawley rats; [10]) [s]	Large movements Duration (Male Sprague-Dawley rats; [10]) [s]	Large movements Occurrence (Male Sprague-Dawley rats; [10])	Inactivity Duration (Male Sprague-Dawley rats; [11]) [s]	Large movements Duration (Male Sprague-Dawley rats; [11]) [s]	Large movements Occurrence (Male Sprague-Dawley rats; [11])	Inactivity Duration (Male Sprague-Dawley rats; [12]) [s]	Large movements Duration (Male Sprague-Dawley rats; [12]) [s]	Large movements Occurrence (Male Sprague-Dawley rats; [12])	Inactivity Duration (Male Sprague-Dawley rats; [13]) [s]	Large movements Duration (Male Sprague-Dawley rats; [13]) [s]	Large movements Occurrence (Male Sprague-Dawley rats; [13])	Inactivity Duration (Male Sprague-Dawley rats; [14]) [s]	Large movements Duration (Male Sprague-Dawley rats; [14]) [s]	Large movements Occurrence (Male Sprague-Dawley rats; [14])	Inactivity Duration (Male Sprague-Dawley rats; [15]) [s]	also measured
COc1cc2c(cc1OC)C1CC(=O)C(CC(C)C)CN1CC2 (racemic) [tetrabenazine, 1,3,4,6,7,11b-hexahydro-9,10-dimethoxy-3-(2-methylpropyl)-2H-benzo(a)quinolizin-2-one]	dose related sedative effect	390.4 ± 37.4	66.8 ± 10.7	253 ± 32	545.9 ± 37.1	24.3 ± 4.2	96 ± 14	456.5 ± 50.5	46.5 ± 8.6	189 ± 32	556.9 ± 31.1	21.5 ± 4.0	90 ± 16	697.8 ± 39.7	8.7 ± 5.9	38 ± 25	729.9 ± 26.8	1.7 ± 0.9	9 ± 4	723.1 ± 46.5	Large movements Duration (Male Sprague-Dawley rats; [15]): 0.2 ± 0.2 s; Large movements Occurrence (Male Sprague-Dawley rats; [15]): 1 ± 1; Inactivity Duration (Male Sprague-Dawley rats; [16]): 762.1 ± 40.7 s; Large movements Duration (Male Sprague-Dawley rats; [16]): 0.6 ± 0.3 s; Large movements Occurrence (Male Sprague-Dawley rats; [16]): 3 ± 1; sedative effect (Male Sprague-Dawley rats; [17]): dose-dependent sedative effect; affinity for VMAT1 (VMAT1): only a low affinity
COc1cc2c(cc1OC)C1CC(O)C(CC(C)C)CN1CC2 (single isomer, unassigned; isomer c) [Isomer C]	no sedative effects were observed	323.7 ± 25.6	79.2 ± 10.0	285 ± 34	519.3 ± 33.7	31.4 ± 6.0	113 ± 19	324.6 ± 38.1	71.8 ± 8.3	295 ± 30	510.2 ± 44.9	30.3 ± 6.5	128 ± 24	322.7 ± 27.8	84.0 ± 9.4	308 ± 36	493.6 ± 38.5	30.2 ± 5.5	125 ± 22	368.7 ± 30.9	inhibitory activity against catechol O-methyl transferase (COMT) [1]: no inhibitory activity; inhibitory activity against 5-hydroxytryptamine isoform 1b [2]: no inhibitory activity; inhibition of the serotonin transporter protein SERT [3]: potent inhibitors; inhibitory activity against 5-hydroxytryptamine isoform 1d [4]: no inhibitory activity; inhibition of the adrenergic receptors (adrenergic receptors): either weakly active or inactive; Large movements Duration (Male Sprague-Dawley rats; [15]): 66.5 ± 9.9 s; Large movements Occurrence (Male Sprague-Dawley rats; [15]): 254 ± 32; Inactivity Duration (Male Sprague-Dawley rats; [16]): 465.7 ± 49.0 s; Large movements Duration (Male Sprague-Dawley rats; [16]): 42.7 ± 8.0 s; Large movements Occurrence (Male Sprague-Dawley rats; [16]): 164 ± 30; sedative effect (Male Sprague-Dawley rats; [17]): no sedative effects at any time; hyperlocomotor effect (Male Sprague-Dawley rats; rats, 3 hours after administration): slight and non-significant hyperlocomotor effect; Dopamine Transporter (DAT) binding activity [5]: lack Dopamine Transporter (DAT) binding activity; inhibitory activity against monoamine oxidase isoform A [6]: no inhibitory activity; dopamine receptor binding activity (dopamine receptor): only weak or non-existent; inhibitory activity against monoamine oxidase isoform B [7]: no inhibitory activity
O=C(CCCN1CCC(O)(c2ccc(Cl)cc2)CC1)c1ccc(F)cc1 [haloperidol, reference compound]	–	–	–	–	–	–	–	637.2 ± 60.1	14.8 ± 8.5	58 ± 33	723.6 ± 50.2	2.2 ± 2.0	9 ± 8	–	–	–	–	–	–	–	–
